# Reference: patent US10647738B2, “Xylene-based amphiphilic compound and use thereof” (Industry-University Cooperation Foundation Hanyang …, priority 2016, dated 2020)
# Where “and” joins values, the source holds several entries; their conditions need not be identical. Equal values may be shown once. Entries after “also recorded” stand apart in the source; their conditions may differ.
# Experiments:
# [1] = target: T1, melibiose permease (MelB) (Salmonella typhimurium, UniProt P30878); assay: MelB extraction from membranes and thermostability, SDS-PAGE and western blotting; conditions: for MelB protein extraction efficiency / MelB protein extraction / maintained solubilization / MelB protein extraction: 1.5 wt % detergent, 90 minutes; for MelB protein extraction / maintained solubilization: 55° C.; for MelB protein extraction: 65° C.
# T1 construct: made in house; host or cells: Salmonella typhimurium DW2 cells (ΔmelB and ΔlacZY) (so in the source); membrane preparation
# T1 sequence (P30878 whole entry): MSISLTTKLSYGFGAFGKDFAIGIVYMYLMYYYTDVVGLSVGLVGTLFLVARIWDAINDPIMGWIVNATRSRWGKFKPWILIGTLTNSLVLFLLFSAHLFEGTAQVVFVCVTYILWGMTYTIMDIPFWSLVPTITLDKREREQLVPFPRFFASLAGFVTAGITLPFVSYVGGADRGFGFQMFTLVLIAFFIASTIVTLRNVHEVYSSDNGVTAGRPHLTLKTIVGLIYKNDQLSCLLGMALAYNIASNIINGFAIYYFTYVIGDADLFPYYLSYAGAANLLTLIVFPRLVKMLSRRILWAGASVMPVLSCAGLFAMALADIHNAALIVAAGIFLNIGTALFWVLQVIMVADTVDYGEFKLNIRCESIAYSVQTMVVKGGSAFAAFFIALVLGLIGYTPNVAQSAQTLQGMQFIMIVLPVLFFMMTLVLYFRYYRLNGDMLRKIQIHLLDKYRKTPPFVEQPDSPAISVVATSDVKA
# Protocol: An experiment for measuring the structural stability of the Salmonella typhimurium melibiose permease (MelB) protein due to XMAs was performed. The MelB protein was extracted on a membrane using XMAs and DDM, and the amount and structure of the extracted protein were analyzed by SDS-PAGE and western blotting. A concentration of the used compound was 1.5 wt %, and the protein was extracted at a different temperature (0, 45, 55, or 65° C.) to evaluate two kinds of performance such as protein extraction efficiency and stabilization ability of the compound at the same time. Membrane samples that were not treated with XMAs or DDM were used as controls.
# Specifically, MelBSt stability due to DDM and XMAs was evaluated according to the method described in the paper (P. S. Chae, et al., Nat. Methods 2010, 7, 1003-1008) written by the inventor in 2010. The protein (MelBSt) was produced using plasmid pK95ΔAHB/WT MelBSt/CH10 encoding wild-type MelB with a 10-His tag at the C-terminus and Salmonella typhimurium DW2 cells (ΔmelB and ΔlacZY). Cell growth and membrane preparation were carried out according to the method described in the paper (Nat. Commun. 2014, 5, 3009) written by A. S. Ethayathulla et al. A protein assay was performed using a Micro BCA kit (Thermo Scientific, Rockford, Ill.). To measure solubilization/stability, MelBSt-containing membrane samples (final protein concentration of 10 mg/mL) were incubated with a solubilization buffer (20 mM sodium phosphate, pH 7.5, 200 mM NaCl, 10% glycerol, 20 mM melibiose) and 1.5% (w/v) DDM, P-XMAs (P-XMA-C8, P-XMA-C9, P-XMA-C10, P-XMA-C11 and P-XMA-C12), M-XMAs (M-XMA-C11, M-XMA-C12, M-XMA-C14, M-XMA-C16 and M-XMA-C18) or O-XMAs (O-XMA-C11, O-XMA-C12, O-XMA-C14, O-XMA-C16 and O-XMA-C18) at four different temperatures (0, 45, 55 and 65° C.) for 90 minutes. Following ultracentrifugation at 355,590 g in a Beckman Optima™ MAX ultracentrifuge using a TLA-100 rotor for 45 minutes at 4° C., 20 μg proteins were separated by SDS-16% PAGE, and then immunoblotted with a Penta-His-HRP antibody (Qiagen, Germantown, Md.). MelBSt was detected using a SuperSignal West Pico chemiluminescent substrate by an ImageQuant LAS 4000 Biomolecular Imager (GE Health Care Life Sciences).
# [2] = Hydrodynamic radius and size distribution of micelles by dynamic light scattering (DLS); assay type: physicochemical; conditions: for Rh (nm), hydrodynamic radius of micelles: 1.0 wt % stated for M-/O-XMAs (FIG. 37); for size distribution of micelles (number of micelle sets): FIGS. 36 and 37
# Protocol: A method for measuring the radius of a micelle is not particularly limited, but a method well known in the art may be used, and for example, the measurement may be performed using a dynamic light scattering (DLS) experiment.
# (§1) Specifically, the critical micellar concentration (CMC) was measured using fluorescence staining and diphenylhexatriene (DPH), and the hydrodynamic radii (Rh) of the micelles formed by agents were measured through a dynamic light scattering (DLS) experiment. The measured results are shown in Tables 1 and 2, compared with a conventional amphiphilic molecule (detergent), DDM.
# [3] = target: T2, human β2 adrenergic receptor (β2AR) (Homo sapiens, UniProt P07550); assay: mBBr-β2AR fluorescence spectrum after dilution to CMC or less; assay type: biochemical; conditions: diluted with NH buffer, 30 minutes
# T2 construct: made in house
# T2 sequence (P07550 whole entry): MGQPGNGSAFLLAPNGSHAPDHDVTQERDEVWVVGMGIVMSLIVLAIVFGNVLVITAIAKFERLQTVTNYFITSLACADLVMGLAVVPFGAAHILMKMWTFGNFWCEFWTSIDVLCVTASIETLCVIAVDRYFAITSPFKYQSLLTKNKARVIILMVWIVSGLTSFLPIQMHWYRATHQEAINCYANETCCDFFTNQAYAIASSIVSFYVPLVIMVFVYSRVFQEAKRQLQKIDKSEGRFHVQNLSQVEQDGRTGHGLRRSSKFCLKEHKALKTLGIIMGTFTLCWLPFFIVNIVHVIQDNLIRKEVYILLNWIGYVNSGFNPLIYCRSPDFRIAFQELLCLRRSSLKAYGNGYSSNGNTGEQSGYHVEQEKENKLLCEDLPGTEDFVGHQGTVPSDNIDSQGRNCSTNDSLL
# Protocol: An experiment for comparing changes in protein structures of XMAs and DDM at CMC or less of an amphiphilic molecule was carried out.
# Specifically, 0.5 μl of an unliganded mBB-labeled receptor solubilized in 20×CMC P-XMA-C11 or P-XMA-C12 at 50 μM was diluted with 500 μl of a NH buffer (20 mM HEPES pH 7.5, 100 mM NaCl). The protein was incubated for 30 minutes, and the mBBr spectrum was measured. The receptor solubilized in 0.1% DDM was diluted with a NH buffer, and used as a control.
# [4] = Critical micelle concentration by fluorescence staining with diphenylhexatriene (DPH); assay type: physicochemical; conditions: aqueous solution
# Protocol: While a method for measuring CMC is not particularly limited, a method widely known in the art may be used, and the measurement may be performed by, for example, a fluorescence staining method using diphenylhexatriene (DPH).
# as §1
# boron transporter (Bor1) = target: T3, boron transporter (Bor1) (Arabidopsis thaliana, UniProt Q8VYR7); assay: Bor1 structural stability in detergent solution, CPM assay; conditions: CMC+0.04 wt % and CMC+0.2 wt %; two hours at 40° C.
# T3 construct: GFP-His (TEV-cleavable) (C, cleaved yes); made in house; host or cells: S. cerevisiae
# T3 sequence (Q8VYR7 whole entry, species assumed): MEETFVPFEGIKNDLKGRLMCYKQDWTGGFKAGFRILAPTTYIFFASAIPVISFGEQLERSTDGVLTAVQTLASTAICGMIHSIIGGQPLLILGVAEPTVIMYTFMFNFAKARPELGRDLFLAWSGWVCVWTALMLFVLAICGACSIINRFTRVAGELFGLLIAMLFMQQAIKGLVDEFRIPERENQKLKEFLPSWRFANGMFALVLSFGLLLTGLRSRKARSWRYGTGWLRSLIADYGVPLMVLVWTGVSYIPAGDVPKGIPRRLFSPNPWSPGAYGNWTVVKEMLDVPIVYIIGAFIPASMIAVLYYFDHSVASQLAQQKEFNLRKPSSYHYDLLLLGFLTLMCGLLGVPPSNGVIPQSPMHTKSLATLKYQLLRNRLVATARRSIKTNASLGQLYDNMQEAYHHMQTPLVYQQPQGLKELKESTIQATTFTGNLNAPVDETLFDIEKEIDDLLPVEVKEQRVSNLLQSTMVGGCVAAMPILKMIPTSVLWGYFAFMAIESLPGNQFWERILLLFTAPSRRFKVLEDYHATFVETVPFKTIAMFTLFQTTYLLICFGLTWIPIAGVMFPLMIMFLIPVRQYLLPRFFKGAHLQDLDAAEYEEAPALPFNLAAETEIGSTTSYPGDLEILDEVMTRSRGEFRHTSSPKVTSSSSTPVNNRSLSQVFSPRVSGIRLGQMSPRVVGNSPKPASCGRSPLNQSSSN
# Protocol: An experiment for measuring the structural stability of a boron transporter (Bor1) in an aqueous solution due to P-XMAs was performed. The Bor1 structural stability was measured using a CPM assay, and concentrations of P-XMAs and DDM were estimated by measuring relative amounts of folded proteins at CMC+0.04 wt % (a) and CMC+0.2 wt % (b) to analyze Bor1 protein stability according to the concentration of an amphiphilic molecule.
# Specifically, Bor1 was expressed as a fusion protein with a C-terminal GFP-His tag in S. cerevisiae. All steps were carried out at 4° C. A Bor1-containing membrane was resuspended with PBS (pH 7.4), 100 mM NaCl, and 10% glycerol and solubilized in 1% DDM for 1 hour with gentle stirring, followed by ultracentrifugation at 200,000 g for 45 minutes. The supernatant was adjusted with 10 mM imidazole, and applied to two 5 ml Ni^2+-NTA columns pre-equilibrated with Buffer A (PBS (pH 7.4), 100 mM NaCl, 10% glycerol, 0.03% DDM) supplemented with 10 mM imidazole. The column was washed with 5 CV of Buffer A supplemented with 30 mM imidazole, and washed with 5 CV of Buffer A supplemented with 50 mM imidazole, followed by elution in Buffer A supplemented with 500 mM imidazole. […] A clear plate cover was added, and the fluorescence of each well was monitored at 40° C. for 120 minutes.
# [5] = target: T2, human β2 adrenergic receptor (β2AR); assay: [3H]-dihydroalprenolol radioligand binding of β2AR purified in detergent; conditions: 10 nM [3H]-DHA, 30 minutes, room temperature
# Protocol: An activation degree of a receptor (mBBr-β2AR) purified by DDM or XMAs was measured by [^3H]-dihydroalprenolol ([^3H]-DHA) binding.
# Specifically, a radioligand binding assay was performed by the following method. β2AR was purified in the presence of 0.1% DDM. After β2AR was reloaded into an M1 Flag column in the presence of 2 mM CaCl2, a DDM (0.1%)-XMA (0.2%) buffer mixture was prepared in a ratio of 50:50, 20:80, 10:90, 5:95 or 0:100. The receptor was eluted in 20×CMC XMA with 5 mM EDTA and 0.2 mg/ml of a free Flag peptide. 0.1 pmol purified β2AR solubilized in DDM, P-XMA-C11, P-XMA-C12, M-XMAs or O-XMAs was incubated with 10 nM of radioactive DHA [^3H]-dihydroalprenolol (DHA) for 30 minutes at room temperature. The mixture was loaded into a G-50 column, and a flow-through was collected with a binding buffer (20 mM HEPES pH 7.5, supplemented with 0.5 mg/ml BSA, 100 mM NaCl), and further filled with 15 ml of a scintillation fluid. Receptor-binding [^3H]DHA was measured with a scintillation counter (Beckman). Non-specific binding of [^3H]-DHA was calculated by adding 1 μM of alprenolol (Sigma) in the same binding reaction. The binding degree of [^3H]-DHA was measured as a column graph.
SMILES,MelB protein extraction efficiency ([1]; 0° C.),MelB protein extraction efficiency ([1]; 45° C.),MelB protein extraction / maintained solubilization [1],MelB protein extraction [1],"Rh (nm), hydrodynamic radius of micelles [2]",size distribution of micelles (number of micelle sets) [2],structural change of β2AR on dilution to CMC or less [3],CMC [4] [µM],CMC (wt %) [4] [wt %],Bor1 structural stability (relative amount of folded protein) (boron transporter (Bor1)),"MelBSt stabilization ability compared with DDM ([1]; 1.5 wt % detergent, 0, 45, 55 and 65° C.)",[3H]-DHA binding degree of purified β2AR [5]
"CCCCCCCCCCCCO[C@@H]1O[C@H](CO)[C@@H](O[C@H]2O[C@H](CO)[C@@H](O)[C@H](O)[C@H]2O)[C@H](O)[C@H]1O [DDM, n-dodecyl-β-D-maltopyranoside, reference compound]",high protein extraction efficiency,high protein extraction efficiency,hardly observed; also recorded: failed to maintain the solubilization of MelB,did not extract the protein,3.4 nm and 3.4 ± 0.02 nm,one set of micelles,clear structural change due to dilution,~170,~0.0087,most instable state,,
CCCCCCCCCCCCC(CO[C@@H]1OC(CO)[C@@H](O[C@H]2OC(CO)[C@@H](O)C(O)C2O)C(O)C1O)(CO[C@@H]1OC(CO)[C@@H](O[C@H]2OC(CO)[C@@H](O)C(O)C2O)C(O)C1O)Cc1ccc(CC(CCCCCCCCCCCC)(CO[C@@H]2OC(CO)[C@@H](O[C@H]3OC(CO)[C@@H](O)C(O)C3O)C(O)C2O)CO[C@@H]2OC(CO)[C@@H](O[C@H]3OC(CO)[C@@H](O)C(O)C3O)C(O)C2O)cc1 (some centres unmarked) [P-XMA-C12],,extraction efficiency at the same level as DDM,higher MelBSt extraction ability than DDM,extracted MelBSt,3.7 nm and 3.7 ± 0.01 nm,two sets of micelles having different radii,less structural change,~1,~0.0002,,higher MelBSt stabilization ability than DDM,radioactive-ligand binding degree similar to the receptor purified by DDM
